# Patent EP2269977B1, “Inhibitors of the 11-beta-hydroxysteroid dehydrogenase Type 1 enzyme” (AbbVie Inc., priority 2005, dated 2006)
# Key:
# [1] = Metabolic stability screen in human liver microsomes; assay type: in vitro ADME; conditions: substrate 10 µM, microsomal protein 0.1- 0.5 mg/ml, 1mM NADPH, pH 7.4, 37°C, 30 min incubation, LC/MS, read-out: Human Liver Microsomal Turnover
# Description: (§1) Metabolic stability screen: each substrate (10 µM) was incubated with microsomal protein (0.1- 0.5 mg/ml) in 50mM potassium phosphate buffer (pH 7.4) in 48-Well plate. The enzyme reaction was initiated by the addition of 1mM NADPH, then incubated at 37°C in a Forma Scientific incubator (Marietta, OH, USA) with gentle shaking. The reactions were quenched by the addition of 800 µl of ACN/MeOH (1:1, v/v), containing 0.5 µM of internal standard (IS), after 30 min incubation. Samples were then filtered by using Captiva 96-Well Filtration (Varian, Lake Forest, CA, USA) and analyzed by LC/MS (mass spectrometry). Liver microsomal incubations were conducted in duplicate.
# (§2) The parent remaining in the incubation mixture was determined by LC/MS. […] A Luna C8(2) (50 x 2.0 mm, particle size 3 µm, Phenomenex, Torrance, CA, USA) was used to quantify each compound at ambient temperature. […]
# (§3) The peak area ratios (each substrate over IS) at each incubation time were expressed as the percentage of the ratios (each substrate over IS) of the control samples (0 min incubation). The parent remaining in the incubation mixture was expressed as the percentage of the values at 0 min incubation. The percentage turnover is calculated using the following equation (%turnover =[…] - %parent remaining) and is recorded as the percentage turnover in the Table 2. […]
# [2] = Metabolic stability screen in mouse liver microsomes; assay type: in vitro ADME; conditions: substrate 10 µM, microsomal protein 0.1- 0.5 mg/ml, 1mM NADPH, pH 7.4, 37°C, 30 min incubation, LC/MS, read-out: Mouse Liver Microsomal Turnover
# Description: as §1, §2, §3
smiles,measurement,setting,value
"CC(C)(Oc1ccc(Cl)cc1)C(=O)NC1C2CC3CC(C2)CC1C3 (centres unmarked) [EE, N-adamantan-2-yl-2-(4-chloro-phenoxy)-2-methyl-propionamide]","metabolised at 0.5 h, 10 µM",[1],88%
same,"metabolised at 0.5 h, 10 µM",[2],86%
